This note sets out measurements from patent US20260265262A1, “CDK2 INHIBITORS AND METHODS OF USING THE SAME” (Cedilla Therapeutics, Inc., priority 2022, published 2026).

Bounds are passed on as bounds.

The subject of one test is Kuramochi cells. Put plainly: IncuCyte cell proliferation assay. It counts as cell-based. The conditions noted are these: Kuramochi cells labeled with mApple-H2B, cell count 0 to 72 hours, 20 μM top concentration; read-out: IncuCyte Kuramochi RB-WT: IC50. The procedure, abridged:
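Kuramochi cells expressing mApple-H2B were treated with a 10-point, ½-log dilution series (top 20 μM). Fluorescent nuclei were counted by IncuCyte imaging at 0 and 72 h. The fold change in cell count was normalized to DMSO wells and fitted to dose-response curves to give […].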

The next test concerns the target CDK2/Cyclin E1 (Homo sapiens, UniProt P24941). Description: ADP-Glo Luminescent Kinase Assay (CDK2/E1-37C). It is filed as biochemical. The conditions noted are these: 0.18 nM CDK2/Cyclin E1, 100 μM ATP, 1.5 μM Histone H1, 37° C., 60 min pre-incubation; read-out: ADPGLO (CDK2/E1-37C): IC50. In short, it runs like this: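 Human CDK2/Cyclin E1 preincubated with inhibitor 60 min at 37 °C, then reacted 90 min at 37 °C with final 0.18 nM enzyme, 100 μM ATP, 1.5 μM Histone H1 in HEPES pH 7.5 buffer. ADP formed read by ADP-Glo luminescence; IC50 from four-parameter fit.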

On to `C[C@@H](OCC1CCCCC1)[C@H](NC(=O)[C@@H]1CN(C(=O)c2cnn(Cc3ccccc3)c2)CC12CN(C(=O)[C@H]1CC1(C)C)C2)C(=O)NS(C)(=O)=O` [Example I-18], for which the IC50 with Kuramochi cells is over 20 µM; on CDK2/Cyclin E1, under 0.5 µM.

Turning to `COC(=O)c1ccccc1C1CCN(C(=O)[C@@H](NC(=O)[C@@H]2CN(C(=O)c3cnn(Cc4ccc(C(F)(F)F)cc4)c3)CC23CN(C(=O)C2(C(F)(F)F)CC2)C3)[C@@H](C)OCC23CCC(CC2)OC3)CC1` [Example I-11, methyl 2-(1-(O-((2-oxabicyclo[2.2.2]octan-4-yl)methyl)-N—((S)-6-(1-(4-(trifluoromethyl)benzyl)-1H-pyrazole-4-carbonyl)-2-(1-(trifluoromethyl)cyclopropane-1-carbonyl)-2,6-diazaspiro[3.4]octane-8-carbonyl)-L-threonyl)piperidin-4-yl)benzoate], the IC50 in the test with Kuramochi cells is 0.5 to 5 µM; on CDK2/Cyclin E1 it was under 0.5 µM.

On to `COC(=O)[C@@H]1CN(C(=O)[C@@H](NC(=O)[C@@H]2CN(C(=O)c3cnn(Cc4ccc(C#N)cc4)c3)CC23CN(C(=O)C2(C(F)(F)F)CC2)C3)[C@@H](C)OCC23CCC(CC2)OC3)CCN1C(=O)OC(C)(C)C` [Example I-114], for which the IC50 in the test on Kuramochi cells is 5 to 20 µM; at CDK2/Cyclin E1, under 0.5 µM.

Turning to `C[C@@H](OCC12CCC(CC1)OC2)[C@H](NC(=O)[C@@H]1CN(C(=O)c2cnn(Cc3ccc(C(F)(F)F)cc3)c2)CC12CN(C(=O)C1(C(F)(F)F)CC1)C2)C(=O)NS(=O)(=O)c1ccc(F)cc1` [Example I-85, (S)—N-((2S,3R)-3-((2-oxabicyclo[2.2.2]octan-4-yl)methoxy)-1-((4-fluorophenyl)sulfonamido)-1-oxobutan-2-yl)-6-(1-(4-(trifluoromethyl)benzyl)-1H-pyrazole-4-carbonyl)-2-(1-(trifluoromethyl)cyclopropane-1-carbonyl)-2,6-diazaspiro[3.4]octane-8-carboxamide], the IC50 in the test on Kuramochi cells is over 20 µM; on CDK2/Cyclin E1, under 0.5 µM.

Consider `COC(=O)c1ccc(N2CCN(C(=O)[C@@H](NC(=O)[C@@H]3CN(C(=O)c4cnn(Cc5ccccc5)c4)CC34CN(C(=O)[C@H]3CC3(C)C)C4)[C@@H](C)OCC3CCCCC3)CC2)cc1` [Example I-31], for which the IC50 in the test with Kuramochi cells and on CDK2/Cyclin E1 was under 0.5 µM throughout.

For `CNC(=O)[C@@H](NC(=O)[C@@H]1CN(C(=O)c2cncs2)CC12CN(CC1CCCO1)C2)[C@@H](C)OCC12CCC(CC1)OC2` (stereo partly drawn) [Example I-48], the IC50 was over 20 µM in the test with Kuramochi cells and 5 to 10 µM at CDK2/Cyclin E1.

On to `C[C@@H](OCC1CCOCC1)[C@H](NC(=O)C1CN(C(=O)c2cnn(Cc3ccc(C(F)(F)F)cc3)c2)CC12CN(C(=O)C1(C(F)(F)F)CC1)C2)C(=O)N1CCC(c2ccc(C(=O)O)cc2)CC1` (stereo in doubt) [I-64 2nd, 4-(1-(O-((tetrahydro-2H-pyran-4-yl)methyl)-N—((S)-6-(1-(4-(trifluoromethyl)benzyl)-1H-pyrazole-4-carbonyl)-2-(1-(trifluoromethyl)cyclopropane-1-carbonyl)-2,6-diazaspiro[3.4]octane-8-carbonyl)-L-threonyl)piperidin-4-yl)benzoic acid], for which the IC50 in the test on Kuramochi cells is over 20 µM; on CDK2/Cyclin E1, over 10 µM.

`C[C@@H](OCC1CCCCC1)[C@H](NC(=O)[C@@H]1CN(C(=O)c2cnn(Cc3ccccc3)c2)CC12CN(C(=O)[C@H]1CC1(C)C)C2)C(=O)NCCC(=O)NS(C)(=O)=O` [Example I-33, (S)-6-(1-benzyl-1H-pyrazole-4-carbonyl)-N-((2S,3R)-3-(cyclohexylmethoxy)-1-((3-(methylsulfonamido)-3-oxopropyl)amino)-1-oxobutan-2-yl)-2-((S)-2,2-dimethylcyclopropane-1-carbonyl)-2,6-diazaspiro[3.4]octane-8-carboxamide]: the IC50 is over 20 µM in the test with Kuramochi cells and under 0.5 µM on CDK2/Cyclin E1.

As for `COC(=O)CCNC(=O)[C@@H](NC(=O)[C@@H]1CN(C(=O)c2cnn(Cc3ccc(F)cc3C(F)(F)F)c2)CC12CN(C(=O)C1(C(F)(F)F)CC1)C2)[C@@H](C)OCC12CCC(CC1)OC2` [Example I-110, Methyl 3-((2S,3R)-3-((2-oxabicyclo[2.2.2]octan-4-yl)methoxy)-2-((S)-6-(1-(4-fluoro-2-(trifluoromethyl)benzyl)-1H-pyrazole-4-carbonyl)-2-(1-(trifluoromethyl)cyclopropane-1-carbonyl)-2,6-diazaspiro[3.4]octane-8-carboxamido)butanamido)propanoate], the IC50 was over 20 µM in the test with Kuramochi cells and 0.5 to 5 µM on CDK2/Cyclin E1.

Take `C[C@@H](OCC12CCC(CC1)OC2)[C@H](NC(=O)[C@@H]1CN(C(=O)c2cnn(Cc3ccccc3C(=O)OC(C)(C)C)c2)CC12CN(C(=O)C1(C(F)(F)F)CC1)C2)C(=O)N1CCN(C(=O)OC(C)(C)C)CC1` [Example I-108]: the IC50 is 0.5 to 5 µM with Kuramochi cells and under 0.5 µM at CDK2/Cyclin E1.

Turning to `C[C@@H](OCC12CCC(CC1)OC2)[C@H](NC(=O)[C@@H]1CN(C(=O)c2cnn(Cc3ccccc3C(=O)O)c2)CC12CN(C(=O)[C@H]1CC1(C)C)C2)C(=O)N1CCC2(CCNCC2)CC1` [Example I-96], the IC50 is over 20 µM in the test on Kuramochi cells and under 0.5 µM on CDK2/Cyclin E1.

As to `C[C@@H](OCC12CCC(CC1)OC2)[C@@H](COC1CCC(c2ccc(C(=O)O)cc2)CC1)NC(=O)[C@@H]1CN(C(=O)c2cnn(Cc3ccc(C(F)(F)F)cc3)c2)CC12CN(C(=O)C1(C(F)(F)F)CC1)C2` (stereo partly drawn) [Example I-86, 4-(4-((2R,3R)-3-(2-oxabicyclo[2.2.2]octan-4-ylmethoxy)-2-((S)-6-(1-(4-(trifluoromethyl)benzyl)-1H-pyrazole-4-carbonyl)-2-(1-(trifluoromethyl)cyclopropanecarbonyl)-2,6-diazaspiro[3.4]octane-8-carboxamido)butoxy)cyclohexyl)benzoic acid], the IC50 was over 20 µM in the test with Kuramochi cells and 0.5 to 5 µM at CDK2/Cyclin E1.

Consider `CC1(C)C[C@@H]1C(=O)N1CC2(CN(C(=O)c3cncs3)C[C@H]2C(=O)N2CCN(CC3CCCCC3)C(CC(=O)O)C2)C1` (stereo partly drawn) [Example I-6, 2-(1-(cyclohexylmethyl)-4-((S)-2-((S)-2,2-dimethylcyclopropane-1-carbonyl)-6-(thiazole-5-carbonyl)-2,6-diazaspiro[3.4]octane-8-carbonyl)piperazin-2-yl)acetic acid], for which the IC50 with Kuramochi cells was over 20 µM; on CDK2/Cyclin E1 it was over 10 µM.

On to `COC(=O)c1c(F)cc(C2CCN(C(=O)[C@@H](NC(=O)[C@@H]3CN(C(=O)c4cnn(Cc5ccc(C(F)(F)F)cc5)c4)CC34CN(C(=O)C3(C(F)(F)F)CC3)C4)[C@@H](C)OCC34CCC(CC3)OC4)CC2)cc1F` (stereo in doubt) [Example I-2], for which the IC50 in the test with Kuramochi cells was 0.5 to 5 µM; at CDK2/Cyclin E1, under 0.5 µM.

In the case of `C[C@@H](OCC12CCC(CC1)OC2)[C@H](NC(=O)[C@@H]1CN(C(=O)c2cnn(Cc3ccc(C(F)(F)F)cc3)c2)CC12CN(C(=O)C1(C(F)(F)F)CC1)C2)C(=O)NCCc1nnn[nH]1` [Example I-16], the IC50 in the test on Kuramochi cells was over 20 µM; on CDK2/Cyclin E1 it was 5 to 10 µM.

With `C[C@@H](OCC1CCOCC1)[C@H](NC(=O)[C@@H]1CN(C(=O)c2cnn(Cc3ccc(C(F)(F)F)cc3)c2)CC12CN(C(=O)C1(C(F)(F)F)CC1)C2)C(=O)N1CCC(c2ccc(C(=O)O)cc2)CC1` [I-64 1st, 4-(1-(O-((tetrahydro-2H-pyran-4-yl)methyl)-N—((S)-6-(1-(4-(trifluoromethyl)benzyl)-1H-pyrazole-4-carbonyl)-2-(1-(trifluoromethyl)cyclopropane-1-carbonyl)-2,6-diazaspiro[3.4]octane-8-carbonyl)-L-threonyl)piperidin-4-yl)benzoic acid], the IC50 with Kuramochi cells is over 20 µM; on CDK2/Cyclin E1, under 0.5 µM.

Turning to `C[C@@H](OCC12CCC(CC1)OC2)[C@@H](COC1CCC(c2nccs2)CC1)NC(=O)[C@@H]1CN(C(=O)c2cnn(Cc3ccc(C(F)(F)F)cc3)c2)CC12CN(C(=O)C1(C(F)(F)F)CC1)C2` (stereo partly drawn) [Example I-107, (S)—N-((2R,3R)-3-(2-oxabicyclo[2.2.2]octan-4-ylmethoxy)-1-((4-(thiazol-2-yl)cyclohexyl)oxy)butan-2-yl)-6-(1-(4-(trifluoromethyl)benzyl)-1H-pyrazole-4-carbonyl)-2-(1-(trifluoromethyl)cyclopropanecarbonyl)-2,6-diazaspiro[3.4]octane-8-carboxamide], the IC50 is 5 to 20 µM in the test with Kuramochi cells and 0.5 to 5 µM at CDK2/Cyclin E1.

Consider `C[C@@H](OCC1CCCCC1)[C@H](NC(=O)[C@@H]1CN(C(=O)c2cnn(Cc3ccccc3)c2)CC12CN(C(=O)[C@H]1CC1(C)C)C2)C(=O)NS(=O)(=O)c1ccc(F)cc1F` [Example I-26, (S)-6-(1-benzyl-1H-pyrazole-4-carbonyl)-N-((2S,3R)-3-(cyclohexylmethoxy)-1-((2,4-difluorophenyl)sulfonamido)-1-oxobutan-2-yl)-2-((S)-2,2-dimethylcyclopropane-1-carbonyl)-2,6-diazaspiro[3.4]octane-8-carboxamide], for which the IC50 in the test on Kuramochi cells was 0.5 to 5 µM; at CDK2/Cyclin E1, under 0.5 µM.

Take `CC1(C)C[C@@H]1C(=O)N1CC2(CN(C(=O)c3cncs3)C[C@H]2C(=O)N2CCN(CC3CCCCC3)C(CC(=O)NS(C)(=O)=O)C2)C1` (single isomer, unassigned) [Example I-95]: the values for the IC50 with Kuramochi cells and at CDK2/Cyclin E1 were over 20 µM and over 10 µM, respectively.

As to `COC(=O)CC1CN(C(=O)[C@@H]2CN(C(=O)c3cncs3)CC23CN(C(=O)[C@H]2CC2(C)C)C3)CCN1CC1CCCCC1` (stereo partly drawn) [Example I-21], the IC50 was over 20 µM in the test with Kuramochi cells and over 10 µM on CDK2/Cyclin E1.

With `C[C@@H](OCC12CCC(CC1)OC2)[C@H](NC(=O)[C@@H]1CN(C(=O)c2cnn(Cc3ccccc3C(=O)OC(C)(C)C)c2)CC12CN(C(=O)C1(C(F)(F)F)CC1)C2)C(=O)NCCC1CCN(C(=O)OC(C)(C)C)CC1` [Example I-103], the figures for the IC50 in the test with Kuramochi cells and at CDK2/Cyclin E1 were 0.5 to 5 µM and under 0.5 µM, respectively.
